# Assay results taken from PubChem BioAssay AID651733 (The Scripps Research Institute Molecular Screening Center, 2012).
# Several values for one entry are separate records, joined by “and”; a condition that tells them apart may be missing. Equal values may be shown once. Activity calls are given as the source filed them. No rule for the calls is given here.
# Biological target: Perilipin-5 (Homo sapiens) + 1-acylglycerol-3-phosphate O-acyltransferase ABHD5 (Homo sapiens) (UniProt Q00G26+Q8WTS1)
# Assay: ABHD5-PLIN5 interaction inhibitors, dose response, cell lysate, luminescence, proteins expressed in HEK293T (AID 651733);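 also: split Gaussia princeps luciferase complementation between ABHD5 and MLDP fusion proteins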
# Chain of Perilipin-5 (Homo sapiens) + 1-acylglycerol-3-phosphate O-acyltransferase ABHD5 (Homo sapiens) (Q00G26 whole entry, looked up, the tested form may be a part): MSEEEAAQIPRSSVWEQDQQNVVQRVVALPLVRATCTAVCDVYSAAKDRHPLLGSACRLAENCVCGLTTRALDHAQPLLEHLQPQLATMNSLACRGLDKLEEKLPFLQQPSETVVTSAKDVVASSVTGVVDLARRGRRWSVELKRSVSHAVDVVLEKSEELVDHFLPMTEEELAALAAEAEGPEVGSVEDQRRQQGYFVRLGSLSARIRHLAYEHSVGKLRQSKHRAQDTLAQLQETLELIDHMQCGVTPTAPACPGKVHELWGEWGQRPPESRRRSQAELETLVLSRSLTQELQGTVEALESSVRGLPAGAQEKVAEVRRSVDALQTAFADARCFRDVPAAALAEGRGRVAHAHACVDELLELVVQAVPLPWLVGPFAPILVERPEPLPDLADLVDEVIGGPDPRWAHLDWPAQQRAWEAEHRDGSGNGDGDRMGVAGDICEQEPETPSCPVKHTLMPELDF
# Chain of Perilipin-5 (Homo sapiens) + 1-acylglycerol-3-phosphate O-acyltransferase ABHD5 (Homo sapiens) (Q8WTS1 whole entry, looked up, the tested form may be a part): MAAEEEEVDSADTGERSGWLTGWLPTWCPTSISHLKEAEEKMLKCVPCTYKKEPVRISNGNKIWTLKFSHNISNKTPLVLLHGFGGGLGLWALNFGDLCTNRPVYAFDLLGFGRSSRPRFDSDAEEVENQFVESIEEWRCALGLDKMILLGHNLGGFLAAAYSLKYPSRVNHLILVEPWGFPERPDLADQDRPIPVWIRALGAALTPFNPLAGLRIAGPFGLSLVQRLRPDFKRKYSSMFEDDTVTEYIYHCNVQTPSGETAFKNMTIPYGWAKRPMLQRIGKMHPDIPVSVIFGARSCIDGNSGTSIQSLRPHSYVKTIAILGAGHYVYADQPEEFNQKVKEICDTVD
row,Compound,IC50
1,O=C1C(=O)c2c(C(=O)c3ccccc3)coc2-c2ccccc21,5.97 µM
2,O=CC1=C(c2ccccc2)Oc2ccccc2O1,3.02 µM
3,O=C(Nc1ccc(Cl)cc1)/C(=C/c1cccc(O)c1)c1nc2ccccc2s1,1.71 µM
4,CCOC(=O)c1c(C)oc2c1c(CN1CCN(CCO)CC1)c(O)c1ccccc12,3.58 µM
5,COc1ccc(NC(=O)C(c2cccc3ccccc23)n2c(=O)c(-c3ccco3)nc3ccccc32)cc1 (configuration not stated),inactive
6,COc1ccc(C(C(=O)NC(C)(C)C)n2c(=O)c(-c3ccco3)nc3ccccc32)cc1 (configuration not stated),3.52 µM
7,Cc1oc2c(c1C(=O)c1ccc(Cl)cc1)C(=O)C(=O)c1ccccc1-2,4.38 µM
8,NC(=NCCCCCCN=C(N)/N=C(\N)Nc1ccc(Cl)cc1)/N=C(\N)Nc1ccc(Cl)cc1,6 µM and 4.02 µM
9,C=CC(=O)N1c2ccccc2Sc2ccc(NC(=O)OCC)cc21,4.84 µM
10,Cc1cccc(C)c1NC(=O)C(c1ccc(C#N)cc1)n1c(=O)c(-c2ccco2)nc2ccccc21 (configuration not stated),3.4 µM
11,CCOC(=O)/C(=C\c1ccc(Cl)cc1)c1nc2sc(C)c(C)c2c(=O)[nH]1,0.862 µM
12,CCOC(=O)c1c(NC(C)=O)sc2c1CCC(C=O)=C2Sc1ccccc1,3.1 µM
13,CN1C(=O)/C(=C/C=C/c2ccco2)C(=O)NC1=S,inactive
14,Oc1c(C(c2ccccc2)N2CCCCC2)ccc2ccccc12 (configuration not stated),1.73 µM
15,CN1CCC[C@@H]1CCO[C@](C)(c1ccccc1)c1ccc(Cl)cc1,6.93 µM
16,COc1ccc(C(C(=O)Nc2c(C)cccc2C)n2c(=O)c(-c3ccco3)nc3ccccc32)cc1 (configuration not stated),4.29 µM
17,NC(=O)CCN1CCN(CCOC2Cc3cc(Cl)ccc3Sc3ccccc32)CC1 (configuration not stated),inactive
18,COc1ccccc1C=CC(=O)C=Cc1ccccc1OC,6.63 µM
19,C=C1C(=O)O[C@H]2C[C@H]1[C@@H](OC(C)=O)C/C(C)=C/CC/C(C)=C\CC[C@]2(C)O,1.6 µM
20,O=C(NCc1ccccc1)C(c1cccc2ccccc12)n1c(=O)c(-c2ccco2)nc2ccccc21 (configuration not stated),4.2 µM
21,COc1cc(C(C)=O)ccc1OCc1cn(CC(=O)c2ccc(O)cc2)nn1,5.81 µM

row,Compound,IC50
1,COc1cc(OC)cc(C(=O)NC(=S)N(Cc2ccccc2)C(C)C)c1,inactive
2,CC(C)(C)NC(=O)C(c1cc2ccccc2o1)n1c(=O)c(-c2ccco2)nc2ccccc21 (configuration not stated),3.94 µM
3,Cc1nc(-c2ccccc2)sc1C(=O)/C=C/c1ccccc1,2.35 µM
4,COc1ccc(C(C(=O)NCc2ccccc2)n2c(=O)c(-c3ccco3)nc3ccccc32)cc1 (configuration not stated),5.37 µM
5,COc1ccc(NC(=O)C(c2ccc(OC)cc2)n2c(=O)c(-c3ccco3)nc3ccccc32)cc1 (configuration not stated),inactive
6,Cc1ccc(/C=C/C(=O)c2cc(Br)ccc2OC(=O)c2ccco2)cc1,0.68 µM
7,Cc1ccc(CS(=O)(=O)c2ncc(Cl)c(C(=O)Nc3nnc(C(C)C)s3)n2)cc1,2.88 µM
8,Cc1ccc(C(=O)c2coc3c2C(=O)C(=O)c2ccccc2-3)cc1,6.15 µM
9,COc1ccc(C)c2sc(N(CCN(C)C)C(=O)/C=C/c3cccs3)nc12,> 13.3 µM (inactive)
10,O=[N+]([O-])/C=C/c1cn(Cc2ccc(F)cc2)c2ccccc12,7.06 µM
11,Cc1ccc(C)c(/C=C/C(=O)c2ccccc(=O)c2O)c1,5.69 µM
12,O=c1nc(/C=C/c2ccc(Cl)cc2Cl)cc(C(F)(F)F)[nH]1,2.98 µM
13,CCOc1cc(/C=C2\CCC/C(=C\c3cc(Cl)c(O)c(OCC)c3)C2=O)cc(Cl)c1O,3.55 µM
14,COC/C=C/C1=CC2=CC(=O)C(C)(OC(=O)C3CCCC3)C(=O)C2=CO1 (configuration not stated),3.88 µM
15,CN(C)CCOc1ccc(-c2c(-c3ccccc3)sc3ccccc23)cc1,inactive
16,CC(=O)Cc1cc(O)c2ccccc2c1OC(=O)c1ccc(Br)cc1,4.1 µM
17,CC(CCc1ccco1)NC(=O)CCc1nnc2ccc(NCc3ccccc3Cl)nn12 (configuration not stated),3.73 µM
18,Cc1ccc(O)c(C(=O)C=Cc2ccccc2)c1,2.61 µM
19,CCC(=O)Nc1cccc(C(=O)/C=C/c2ccccc2)c1,3.05 µM
20,CC1Sc2ccc(S(=O)(=O)N3CCC(C(=O)NCc4ccc(Cl)cc4)CC3)cc2NC1=O (configuration not stated),inactive
21,O=C(/C(=C/c1ccccc1)n1cncn1)c1ccc(Cl)cc1Cl,2.13 µM

row,Compound,IC50
1,COc1ccc(NC(=O)C(c2ccc(C#N)cc2)n2c(=O)c(-c3ccco3)nc3ccccc32)cc1 (configuration not stated),inactive
2,Cc1ccc(C(=O)c2c(C)oc3c2C(=O)C(=O)c2ccccc2-3)cc1,5.87 µM
3,N#Cc1ccc(C(C(=O)NC2CCCCC2)n2c(=O)c(-c3ccco3)nc3ccccc32)cc1 (configuration not stated),4.03 µM
4,FC(F)(F)c1cccc(NC(=S)N(CCCN2CCCC2)Cc2cccn2Cc2ccc(Cl)cc2)c1,> 13.3 µM (inactive)
5,Cc1cc(C)c(NC(=O)CN2CCN3CCCC3C2)c(C)c1 (configuration not stated),4.81 µM
6,O=C1NC(=O)N(Cc2ccccc2)C(=O)/C1=C\C=C\c1ccco1,2.53 µM
7,Cc1cccc(C)c1NC(=O)C(c1ccncc1)n1c(=O)c(-c2ccco2)nc2ccccc21 (configuration not stated),inactive
8,O=C(NC1CCCCC1)C(c1ccc(-c2ccccc2)cc1)n1c(=O)c(-c2ccco2)nc2ccccc21 (configuration not stated),4.1 µM
9,O=S(=O)(NC1=NCCCCC1)c1ccc2sc(NS(=O)(=O)c3ccc4ccccc4c3)nc2c1,inactive
10,CCOC(=O)C1C(OC(=O)c2ccccc2)CC2CCC1N2C (configuration not stated),5.69 µM
11,CSc1nnc(NC(=O)c2nc(S(=O)(=O)Cc3ccccc3F)ncc2Cl)s1,3.66 µM
12,CCCCCNC(=O)C(c1cc2ccccc2o1)n1c(=O)c(-c2ccco2)nc2ccccc21 (configuration not stated),3.08 µM
13,N#Cc1ccc(C(C(=O)NCc2ccccc2)n2c(=O)c(-c3ccco3)nc3ccccc32)cc1 (configuration not stated),2.85 µM
14,CCCCOC(=O)Nc1cc(C(=O)OC)ccc1C(=O)OC,4.5 µM
15,COc1ccc(NC(=O)c2cc3ccccc3cc2O)cc1,inactive
16,COc1ccc(NC(=S)N(CCCN2CCCC2)Cc2cccn2Cc2ccc(Cl)cc2)cc1Cl,inactive
17,O=C(/C=C/c1ccc2c(c1)OCCCO2)c1ccccc1O,5.14 µM
18,CCN(CCCc1ccccc1)CCCc1ccccc1,2.62 µM
19,CCC(C(=O)OCCN(CC)CC)c1ccccc1 (configuration not stated),2.67 µM
20,CCCCn1c(SCC(=O)NCc2ccco2)nnc1-c1ccoc1C,6.5 µM
